Patent US20150017667A1, “MEANS AND METHODS FOR ASSESSING LIVER DISORDERS” (BASF SE, priority 2012, published 2015)
Marks after values point to notes of the source that are not given here.

Key:
[1] = tested on: male rats; assay: 28-day repeated dose oral toxicity study (OECD 407) with GC-MS/LC-MS plasma metabolite profiling, male rats; format: in vivo, rat; details: plasma
Excerpt: Drinking water was also offered ad libitum.
The samples were centrifuged for generation of plasma.

[2] = tested on: female rats; assay: 28-day repeated dose oral toxicity study (OECD 407) with GC-MS/LC-MS plasma metabolite profiling, female rats
Method: A group of each 5 male and female rats was dosed once daily with the indicated compounds (see Table 5, below for compounds, applied doses and administeration details) over 28 days.
Each dose group in the studies consisted of five rats per sex. Additional groups of each 5 male and female animals served as controls. Before starting the treatment period, animals, which were 62-64 days old when supplied, were acclimatized to the housing and environmental conditions for 7 days. All animals of the animal population were kept under the same constant temperature (20-24±3° C.) and the same constant humidity (30-70%). The animals of the animal population were fed ad libitum. The food to be used was essentially free of chemical or microbial contaminants. Drinking water was also offered ad libitum. Accordingly, the water was free of chemical and microbial contaminants as laid down in the European Drinking Water Directive 98/83/EG. The illumination period was 12 hours light followed by 12 hours darkness (12 hours light, from 6:00 to 18:00, and 12 hours darkness, from 18:00 to 6:00).
In the morning of day 7, 14, and 28, blood was taken from the retroorbital venous plexus from fasted anaesthetized animals. From each animal, 1 ml of blood was collected with EDTA as anticoagulant. The samples were centrifuged for generation of plasma. All plasma samples were covered with a N2 atmosphere and then stored at −80° C. until analysis.
For mass spectrometry-based metabolite profiling analyses plasma samples were extracted and a polar and a non-polar (lipid) fraction was obtained. For GC-MS analysis, the non-polar fraction was treated with methanol under acidic conditions to yield the fatty acid methyl esters. Both fractions were further derivatised with O-methyl-hydroxyamine hydrochloride and pyridine to convert Oxogroups to O-methyloximes and subsequently with a silylating agent before analysis. In LC-MS analysis, both fractions were reconstituted in appropriate solvent mixtures. HPLC was performed by gradient elution on reversed phase separation columns.
Following comprehensive analytical validation steps, the data for each analyte were normalized against data from pool samples. These samples were run in parallel through the whole process to account for process variability. The significance of treatment group values specific for sex, treatment duration and metabolite was determined by comparing means of the treated groups to the means of the respective untreated control groups using WELCH-test and quantified with treatment ratios versus control and p-values.

## Cc1cccc(C)c1N(Cn1cccn1)C(=O)CCl [Metazachlor, N-(2,6-dimethylphenyl)-N-(pyrazol-1-ylmethyl)chloroacetamid]
[1]; day 7
  4-Hydroxyphenylpyruvate, ratio versus control: 2.23*
  Glycerol-3-phosphate, polar fraction, ratio versus control: 1.04
  Phosphatidylcholine (C16:1,C18:2), ratio versus control: 1.29*
  Phosphatidylcholine (C18:0,C18:1), ratio versus control: 1.56*
  Phosphatidylcholine (C18:0,C18:2), ratio versus control: 1.4*
  Phytosphingosine, ratio versus control: 2.08*
[1]; day 7 (Table 2)
  Lysophosphatidylcholine (C18:1), ratio versus control: 1.1*
  Phosphatidylcholine (C16:0,C20:5), ratio versus control: 1
  alpha-Tocopherol, ratio versus control: 1.8*
[1]; day 14
  4-Hydroxyphenylpyruvate, ratio versus control: 2.59*
  Glycerol-3-phosphate, polar fraction, ratio versus control: 1.63*
  Phosphatidylcholine (C16:1,C18:2), ratio versus control: 2.11*
  Phosphatidylcholine (C18:0,C18:1), ratio versus control: 2.37*
  Phosphatidylcholine (C18:0,C18:2), ratio versus control: 1.55*
  Phytosphingosine, ratio versus control: 2.86*
[1]; day 14 (Table 2)
  Lysophosphatidylcholine (C18:1), ratio versus control: 1.49*
  Phosphatidylcholine (C16:0,C20:5), ratio versus control: 1.47*
  alpha-Tocopherol, ratio versus control: 1.3*
[1]; day 28
  4-Hydroxyphenylpyruvate, ratio versus control: 3.26*
  Glycerol-3-phosphate, polar fraction, ratio versus control: 1.52*
  Phosphatidylcholine (C16:1,C18:2), ratio versus control: 2.32*
  Phosphatidylcholine (C18:0,C18:1), ratio versus control: 2.06*
  Phosphatidylcholine (C18:0,C18:2), ratio versus control: 1.51*
  Phytosphingosine, ratio versus control: 3.2*
[1]; day 28 (Table 2)
  Lysophosphatidylcholine (C18:1), ratio versus control: 1.33*
  Phosphatidylcholine (C16:0,C20:5), ratio versus control: 1.67*
  alpha-Tocopherol, ratio versus control: 1.49*
[2]; day 7
  3-O-Methylsphingosine (d18:1), ratio versus control: 5.2*
  5-O-Methylsphingosine (d18:1), ratio versus control: 5.11*
  14-Methylhexadecanoic acid, ratio versus control: 1.18*
  Behenic acid (C22:0), ratio versus control: 2.8*
  Cholesterol, ratio versus control: 2.52*
  Coenzyme Q9, ratio versus control: 2.3*
  DAG (C18:1,C18:2), ratio versus control: 1.52*
  Eicosanoic acid (C20:0), ratio versus control: 2.17*
  Glucose, ratio versus control: 1.4*
  Glycerol phosphate, lipid fraction, ratio versus control: 2.41*
  Glycerol, lipid fraction, ratio versus control: 1.89*
  Glycerol-3-phosphate, polar fraction, ratio versus control: 1.61*
  Heptadecanoic acid (C17:0), ratio versus control: 1.53*
  Linoleic acid (C18:cis[9,12]2), ratio versus control: 2.33*
  Nervonic acid (C24:cis[15]1), ratio versus control: 4.5*
  Palmitic acid (C16:0), ratio versus control: 1.96*
  Phosphatidylcholine (C16:0,C20:5), ratio versus control: 1.18*
  TAG (C16:0,C18:1,C18:3), ratio versus control: 2.84*
  TAG (C16:0,C18:2), ratio versus control: 2.65*
  TAG (C18:1,C18:2), ratio versus control: 2.65*
  TAG (C18:2,C18:2), ratio versus control: 2.42*
  TAG (C18:2,C18:3), ratio versus control: 2.42*
  TAG No 01, ratio versus control: 1.87*
  TAG No 05, ratio versus control: 2.27*
  TAG No 07, ratio versus control: 1.97
  dihomo-gamma-Linolenic acid (C20:cis[8,11,14]3), ratio versus control: 2.69*
  erythro-Sphingosine, ratio versus control: 4.06*
[2]; day 14
  3-O-Methylsphingosine (d18:1), ratio versus control: 7.58*
  5-O-Methylsphingosine (d18:1), ratio versus control: 7.74*
  14-Methylhexadecanoic acid, ratio versus control: 1.17*
  Behenic acid (C22:0), ratio versus control: 4.3*
  Cholesterol, ratio versus control: 2.96*
  Coenzyme Q9, ratio versus control: 2.09*
  DAG (C18:1,C18:2), ratio versus control: 1.92*
  Eicosanoic acid (C20:0), ratio versus control: 3.19*
  Glucose, ratio versus control: 1.17*
  Glycerol phosphate, lipid fraction, ratio versus control: 3.43*
  Glycerol, lipid fraction, ratio versus control: 2.34*
  Glycerol-3-phosphate, polar fraction, ratio versus control: 1.72*
  Heptadecanoic acid (C17:0), ratio versus control: 1.98*
  Linoleic acid (C18:cis[9,12]2), ratio versus control: 3.2*
  Nervonic acid (C24:cis[15]1), ratio versus control: 5.92*
  Palmitic acid (C16:0), ratio versus control: 2.83*
  Phosphatidylcholine (C16:0,C20:5), ratio versus control: 1.46*
  TAG (C16:0,C18:1,C18:3), ratio versus control: 3.67*
  TAG (C16:0,C18:2), ratio versus control: 3.69*
  TAG (C18:1,C18:2), ratio versus control: 2.74*
  TAG (C18:2,C18:2), ratio versus control: 2.51*
  TAG (C18:2,C18:3), ratio versus control: 2.89*
  TAG No 01, ratio versus control: 1.99*
  TAG No 05, ratio versus control: 4.68*
  TAG No 07, ratio versus control: 3.87*
  dihomo-gamma-Linolenic acid (C20:cis[8,11,14]3), ratio versus control: 4.76*
  erythro-Sphingosine, ratio versus control: 5.79*
[2]; day 28
  3-O-Methylsphingosine (d18:1), ratio versus control: 5.44*
  5-O-Methylsphingosine (d18:1), ratio versus control: 5.42*
  14-Methylhexadecanoic acid, ratio versus control: 1.19*
  Behenic acid (C22:0), ratio versus control: 3.4*
  Cholesterol, ratio versus control: 2.72*
  Coenzyme Q9, ratio versus control: 1.75*
  DAG (C18:1,C18:2), ratio versus control: 2.94*
  Eicosanoic acid (C20:0), ratio versus control: 2.49*
  Glucose, ratio versus control: 0.99
  Glycerol phosphate, lipid fraction, ratio versus control: 2.93*
  Glycerol, lipid fraction, ratio versus control: 3.13*
  Glycerol-3-phosphate, polar fraction, ratio versus control: 1.55*
  Heptadecanoic acid (C17:0), ratio versus control: 2.08*
  Linoleic acid (C18:cis[9,12]2), ratio versus control: 3.43*
  Nervonic acid (C24:cis[15]1), ratio versus control: 5.03*
  Palmitic acid (C16:0), ratio versus control: 2.86*
  Phosphatidylcholine (C16:0,C20:5), ratio versus control: 1.26*
  TAG (C16:0,C18:1,C18:3), ratio versus control: 5.22*
  TAG (C16:0,C18:2), ratio versus control: 3.73*
  TAG (C18:1,C18:2), ratio versus control: 3.09*
  TAG (C18:2,C18:2), ratio versus control: 4.34*
  TAG (C18:2,C18:3), ratio versus control: 4.18*
  TAG No 01, ratio versus control: 3.16*
  TAG No 05, ratio versus control: 5.27*
  TAG No 07, ratio versus control: 4.1*
  dihomo-gamma-Linolenic acid (C20:cis[8,11,14]3), ratio versus control: 4.48*
  erythro-Sphingosine, ratio versus control: 4.33*
